Drawing on ChEMBL document CHEMBL1131542, “A potent dipeptide inhibitor of dipeptidyl peptidase IV” (Bioorg Med Chem Lett, 1998), this text covers inhibition and IC50 for six compounds.

Square brackets hold non-standard residues; d marks the D form. Peptide text beside a SMILES is read from it. Tic = O=C(O)[C@@H]1Cc2ccccc2CN1

In assay [1] the target is T1, Dipeptidyl peptidase 4 (Homo sapiens, UniProt P27487). As to the kind of experiment: Percent inhibition against Dipeptidylpeptidase IV (DPP IV) at a concentration of 10 uM.
Target sequence in this assay (P27487 whole entry, looked up): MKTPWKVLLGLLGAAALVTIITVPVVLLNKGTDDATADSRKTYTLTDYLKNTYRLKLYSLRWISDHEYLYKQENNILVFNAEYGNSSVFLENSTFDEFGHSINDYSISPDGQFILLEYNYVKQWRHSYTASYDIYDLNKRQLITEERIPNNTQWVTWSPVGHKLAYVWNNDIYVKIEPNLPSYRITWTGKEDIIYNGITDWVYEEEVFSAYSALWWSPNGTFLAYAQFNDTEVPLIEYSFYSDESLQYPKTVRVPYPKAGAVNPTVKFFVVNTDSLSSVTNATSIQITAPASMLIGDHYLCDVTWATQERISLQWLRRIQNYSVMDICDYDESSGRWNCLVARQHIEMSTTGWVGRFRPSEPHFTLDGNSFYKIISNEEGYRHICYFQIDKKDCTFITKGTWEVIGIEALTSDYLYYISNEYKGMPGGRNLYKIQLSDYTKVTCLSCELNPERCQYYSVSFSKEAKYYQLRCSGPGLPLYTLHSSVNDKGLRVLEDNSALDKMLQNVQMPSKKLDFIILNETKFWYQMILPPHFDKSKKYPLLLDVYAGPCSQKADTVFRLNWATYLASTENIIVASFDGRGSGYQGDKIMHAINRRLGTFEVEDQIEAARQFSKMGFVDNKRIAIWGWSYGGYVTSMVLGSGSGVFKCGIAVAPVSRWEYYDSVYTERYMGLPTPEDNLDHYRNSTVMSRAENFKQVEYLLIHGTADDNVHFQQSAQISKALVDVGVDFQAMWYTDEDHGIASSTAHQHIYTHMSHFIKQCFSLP
Assay [2] has as its target T1, Dipeptidyl peptidase 4. In words: Inhibitory concentration against Dipeptidyl peptidase IV (DPP IV).
Target sequence in this assay (P27487 whole entry): as the sequence (P27487 whole entry, looked up) above
Assay [3] addresses T1, Dipeptidyl peptidase 4. In words: Percent inhibition of Dipeptidyl peptidase IV (DPP IV) at a concentration of 10 uM.
Target sequence in this assay (P27487 whole entry, looked up): as above
Assay [4] deals with T1, Dipeptidyl peptidase 4. As to the kind of experiment: Percent inhibition against Dipeptidyl peptidase IV (DPP IV) at a concentration of 1 uM.
Target sequence in this assay (P27487 whole entry, looked up): as above

Regarding `COc1c(O)cc2c(c1O)CN(C(=O)[C@@H](N)Cc1c[nH]c3ccccc13)[C@H](C(=O)N[C@@H](CC(CO)CO)C(=O)O)C2`, the inhibition against Dipeptidyl peptidase 4 [1] came to 7.7%.

As to `N[C@@H](Cc1c[nH]c2ccccc12)C(=O)N1Cc2ccccc2C[C@H]1C(=O)N[C@@H](CCC(=O)O)C(=O)O` (H-Trp-[Tic]-Glu-OH), the IC50 at Dipeptidyl peptidase 4 [2] came to 7 µM. For the same compound, the inhibition against Dipeptidyl peptidase 4 [3] turned out to be 62%.

The compound `N[C@@H](Cc1c[nH]c2ccccc12)C(=O)N1Cc2ccccc2C[C@H]1C(=O)O` (H-Trp-[Tic]-OH) had an IC50 against Dipeptidyl peptidase 4 [2] of 5.7 µM. Also, the inhibition at Dipeptidyl peptidase 4 [3] turned out to be 59%. For the compound `N[C@@H](Cc1c[nH]c2ccccc12)C(=O)N1Cc2ccccc2C[C@H]1C(=O)N[C@@H](CO)C(=O)O` (H-Trp-[Tic]-Ser-OH), at Dipeptidyl peptidase 4 [2], 7.9 µM corresponded to half-maximal inhibition (IC50). For the same compound, at Dipeptidyl peptidase 4 [3], the inhibition came out at 53%. The compound `CC[C@H](C)[C@H](NC(=O)[C@H](Cc1c[nH]cn1)NC(=O)CNC(=O)[C@H](CCC(=O)O)NC(=O)[C@H](CCC(N)=O)NC(=O)[C@H](CC(=O)O)NC(=O)[C@H](CC(N)=O)NC(=O)[C@H](CCCN=C(N)N)NC(=O)[C@H](C)NC(=O)[C@@H]1Cc2ccccc2CN1C(=O)[C@@H](N)Cc1c[nH]c2ccccc12)C(=O)N[C@@H](CC(C)C)C(=O)N[C@@H](CCCCN)C(=O)N[C@@H](CCSC)C(=O)N[C@@H](Cc1ccccc1)C(=O)N1CCC[C@H]1C(=O)N[C@@H](CO)C(=O)N[C@H](C(=O)N[C@@H](Cc1c[nH]c2ccccc12)C(=O)N[C@@H](Cc1ccc(O)cc1)C(=O)N[C@H](C(=O)O)C(C)C)[C@@H](C)O` (H-W[Tic]ARNDQEGHILKMFPSTWYV-OH) yielded an inhibition against Dipeptidyl peptidase 4 [4] of 61%.

In turn, `CC[C@H](C)[C@H](NC(=O)[C@H](Cc1c[nH]cn1)NC(=O)CNC(=O)[C@H](CCC(=O)O)NC(=O)[C@H](CCC(N)=O)NC(=O)[C@H](CC(=O)O)NC(=O)[C@H](CC(N)=O)NC(=O)[C@H](CCCN=C(N)N)NC(=O)[C@H](C)NC(=O)[C@@H]1Cc2ccccc2CN1C(=O)[C@@H](N)Cc1ccc(O)cc1)C(=O)N[C@@H](CC(C)C)C(=O)N[C@@H](CCCCN)C(=O)N[C@@H](CCSC)C(=O)N[C@@H](Cc1ccccc1)C(=O)N1CCC[C@H]1C(=O)N[C@@H](CO)C(=O)N[C@H](C(=O)N[C@@H](Cc1c[nH]c2ccccc12)C(=O)N[C@@H](Cc1ccc(O)cc1)C(=O)N[C@H](C(=O)O)C(C)C)[C@@H](C)O` (H-Y[Tic]ARNDQEGHILKMFPSTWYV-OH) showed an inhibition against Dipeptidyl peptidase 4 [4] of 12%.
